The results in this text go back to US20250282768A1 (Janssen Pharmaceutica NV, priority 2022, published 2025).

Where only a bound is given, the exact number is not on record here.

For the assay, the system named is p-IKKa levels in L363 (NIK translocated multiple myeloma) cells. The assay is described as follows: Assay 2: Effect of compounds on p-IKKa levels in L363 (NIK translocated multiple myeloma) cells. The assay is classed as cell-based. The conditions noted are these: Homo sapiens, L-363, 6 h, read-out: Assay 2 IC50 (nM), p-IKKa (Ser 176/180) in BAFF stimulated L363 cells with MG132, 6 h; average if tested more than once. The essentials:
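L363 cells incubated overnight ± 250 ng/ml BAFF, then 6 h at 37 °C with compound (0.3% DMSO) ± 10 μM MG132. Lysates assayed for p-IKKa (Ser176/180) by AlphaLISA SureFire. IC50 from sigmoidal fit of % inhibition normalized to BAFF/MG132-stimulated and unstimulated controls.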

`CN1CC[C@@](O)(c2cc(-c3cccc(-c4ccnc(Nc5cnn(C)c5Cl)n4)n3)no2)C1=O` [Example 297, (R)-3-(3-(6-(2-((5-Chloro-1-methyl-1H-pyrazol-4-yl)amino)pyrimidin-4-yl)pyridin-2-yl)isoxazol-5-yl)-3-hydroxy-1-methylpyrrolidin-2-one]: the IC50 was less than 50 nM.

`Cc1nccc(Nc2nccc(-c3cccc(-c4cc([C@]5(O)CCN(C)C5=O)on4)n3)n2)n1` [Example 298, (R)-3-Hydroxy-1-methyl-3-(3-(6-(2-((2-methylpyrimidin-4-yl)amino)pyrimidin-4-yl)pyridin-2-yl)isoxazol-5-yl)pyrrolidin-2-one]: the IC50 is less than 50 nM.

For `CN1CC[C@@](O)(c2cc(-c3cccc(-c4ccnc(Nc5cnn6ccncc56)n4)n3)no2)C1=O` [Example 299, (R)-3-Hydroxy-1-methyl-3-(3-(6-(2-(pyrazolo[1,5-a]pyrazin-3-ylamino)pyrimidin-4-yl)pyridin-2-yl)isoxazol-5-yl)pyrrolidin-2-one], the IC50 is less than 50 nM.

Consider `CN1CC[C@@](O)(c2cc(-c3cccc(-c4ccnc(Nc5cc6n(n5)CC5(CC5)C6)n4)n3)no2)C1=O` [Example 300, (R)-3-(3-(6-(2-((4′H,6′H-Spiro[cyclopropane-1,5′-pyrrolo[1,2-b]pyrazol]-2′-yl)amino)pyrimidin-4-yl)pyridin-2-yl)isoxazol-5-yl)-3-hydroxy-1-methylpyrrolidin-2-one], for which the IC50 is less than 50 nM.

On to `[2H]c1cc(-c2cccc(-n3cc([C@]4(O)CCN(C)C4=O)nn3)n2)nc(Nc2ccn(CC)n2)n1` [Example 301, (R)-3-(1-(6-(2-((1-Ethyl-1H-pyrazol-3-yl)amino)pyrimidin-4-yl-6-d)pyridin-2-yl)-1H-1,2,3-triazol-4-yl)-3-hydroxy-1-methylpyrrolidin-2-one], for which the IC50 is less than 50 nM.

On to `CN1CC[C@@](O)(c2cc(-c3cccc(-c4ccnc(Nc5cnn6c5COCC6)n4)n3)no2)C1=O` [Example 302, (R)-3-(3-(6-(2-((6,7-Dihydro-4H-pyrazolo[5,1-c][1,4]oxazin-3-yl)amino)pyrimidin-4-yl)pyridin-2-yl)isoxazol-5-yl)-3-hydroxy-1-methylpyrrolidin-2-one], for which the IC50 was less than 50 nM.

In the case of `CN1CC[C@@](O)(c2cc(-c3cccc(-c4ccnc(Nc5cnc(CO)cn5)n4)n3)no2)C1=O` [Example 303, (R)-3-Hydroxy-3-(3-(6-(2-((5-(hydroxymethyl)pyrazin-2-yl)amino)pyrimidin-4-yl)pyridin-2-yl)isoxazol-5-yl)-1-methylpyrrolidin-2-one], the IC50 was 50 to 500 nM.

Consider `CN1CC[C@@](O)(c2cc(-c3cccc(-c4ccnc(Nc5nnc(C6CC6)o5)n4)n3)no2)C1=O` [Example 304, (R)-3-(3-(6-(2-((5-Cyclopropyl-1,3,4-oxadiazol-2-yl)amino)pyrimidin-4-yl)pyridin-2-yl)isoxazol-5-yl)-3-hydroxy-1-methylpyrrolidin-2-one], for which the IC50 lay within 50 to 500 nM.

In the case of `CN1CC[C@@](O)(c2cc(-c3cccc(-c4ccnc(Nc5ncn(CC(F)(F)F)n5)n4)n3)no2)C1=O` [Example 305, (R)-3-Hydroxy-1-methyl-3-(3-(6-(2-((1-(2,2,2-trifluoroethyl)-1H-1,2,4-triazol-3-yl)amino)pyrimidin-4-yl)pyridin-2-yl)isoxazol-5-yl)pyrrolidin-2-one], the IC50 lay in the range of 50 to 500 nM.

As for `CN(C)CCn1nccc1Nc1nccc(-c2cccc(-c3cc([C@]4(O)CCN(C)C4=O)on3)n2)n1` [Example 306, (R)-3-(3-(6-(2-((1-(2-(Dimethylamino)ethyl)-1H-pyrazol-5-yl)amino)pyrimidin-4-yl)pyridin-2-yl)isoxazol-5-yl)-3-hydroxy-1-methylpyrrolidin-2-one], the IC50 was greater than 500 nM.

Regarding `CN1CC[C@@](O)(c2cc(-c3cccc(-c4ccnc(Nc5ccc(-c6nncn6C)cn5)n4)n3)no2)C1=O` [Example 308, (R)-3-Hydroxy-1-methyl-3-(3-(6-(2-((5-(4-methyl-4H-1,2,4-triazol-3-yl)pyridin-2-yl)amino)pyrimidin-4-yl)pyridin-2-yl)isoxazol-5-yl)pyrrolidin-2-one], the IC50 lay in the range of 50 to 500 nM.

As for `Cc1nc(-c2ccc(Nc3nccc(-c4cccc(-c5cc([C@]6(O)CCN(C)C6=O)on5)n4)n3)nc2)n(C)n1` [Example 309, (R)-3-(3-(6-(2-((5-(1,3-Dimethyl-1H-1,2,4-triazol-5-yl)pyridin-2-yl)amino)pyrimidin-4-yl)pyridin-2-yl)isoxazol-5-yl)-3-hydroxy-1-methylpyrrolidin-2-one], the IC50 was greater than 500 nM.

With `CN1CC[C@@](O)(c2cc(-c3cccc(-c4ccnc(Nc5ncnc6c5COCC6)n4)n3)no2)C1=O` [Example 310, (R)-3-(3-(6-(2-((7,8-Dihydro-5H-pyrano[4,3-d]pyrimidin-4-yl)amino)pyrimidin-4-yl)pyridin-2-yl)isoxazol-5-yl)-3-hydroxy-1-methylpyrrolidin-2-one], the IC50 is greater than 500 nM.

Regarding `COCn1ncc(Nc2nccc(-c3cccc(-c4cc([C@]5(O)CCN(C)C5=O)on4)n3)n2)n1` [Example 311, (R)-3-Hydroxy-3-(3-(6-(2-((2-(methoxymethyl)-2H-1,2,3-triazol-4-yl)amino)pyrimidin-4-yl)pyridin-2-yl)isoxazol-5-yl)-1-methylpyrrolidin-2-one], the IC50 is less than 50 nM.

Take `CN1CC[C@@](O)(c2cc(-c3cccc(-c4ccnc(Nc5ccn(C6COC6)n5)n4)n3)no2)C1=O` [Example 312, (R)-3-Hydroxy-1-methyl-3-(3-(6-(2-((1-(oxetan-3-yl)-1H-pyrazol-3-yl)amino)pyrimidin-4-yl)pyridin-2-yl)isoxazol-5-yl)pyrrolidin-2-one]: the IC50 is less than 50 nM.

In the case of `CN1CC[C@@](O)(c2cc(-c3cccc(-c4ccnc(Nc5cnc6n5CCOC6)n4)n3)no2)C1=O` [Example 313, (R)-3-(3-(6-(2-((5,6-Dihydro-8H-imidazo[2,1-c][1,4]oxazin-3-yl)amino)pyrimidin-4-yl)pyridin-2-yl)isoxazol-5-yl)-3-hydroxy-1-methylpyrrolidin-2-one], the IC50 was greater than 500 nM.

In the case of `CN1CC[C@@](O)(c2cc(-c3cccc(-c4ccnc(Nc5cnc6n5CCOCC6)n4)n3)no2)C1=O` [Example 314, (R)-3-Hydroxy-1-methyl-3-(3-(6-(2-((5,6,8,9-tetrahydroimidazo[1,2-d][1,4]oxazepin-3-yl)amino)pyrimidin-4-yl)pyridin-2-yl)isoxazol-5-yl)pyrrolidin-2-one], the IC50 is greater than 500 nM.

For `CN1CC[C@@](O)(c2cc(-c3cccc(-c4ccnc(Nc5ncn6ccnc6n5)n4)n3)no2)C1=O` [Example 315, (R)-3-Hydroxy-3-(3-(6-(2-(imidazo[1,2-a][1,3,5]triazin-2-ylamino)pyrimidin-4-yl)pyridin-2-yl)isoxazol-5-yl)-1-methylpyrrolidin-2-one], the IC50 is greater than 500 nM.

Consider `CN1CC[C@@](O)(c2cc(-c3cccc(-c4ccnc(Nc5ncc(CO)cn5)n4)n3)no2)C1=O` [Example 316, (R)-3-Hydroxy-3-(3-(6-(2-((5-(hydroxymethyl)pyrimidin-2-yl)amino)pyrimidin-4-yl)pyridin-2-yl)isoxazol-5-yl)-1-methylpyrrolidin-2-one], for which the IC50 was greater than 500 nM.

On to `COc1cccnc1Nc1nccc(-c2cccc(-c3cc([C@]4(O)CCN(C)C4=O)on3)n2)n1` [Example 317, (R)-3-Hydroxy-3-(3-(6-(2-((3-methoxypyridin-2-yl)amino)pyrimidin-4-yl)pyridin-2-yl)isoxazol-5-yl)-1-methylpyrrolidin-2-one], for which the IC50 is greater than 500 nM.

Take `CN1CC[C@@](O)(c2cc(-c3cccc(-c4ccnc(Nc5ncn(C)n5)n4)n3)no2)C1=O` [Example 318, (R)-3-Hydroxy-1-methyl-3-(3-(6-(2-((1-methyl-1H-1,2,4-triazol-3-yl)amino)pyrimidin-4-yl)pyridin-2-yl)isoxazol-5-yl)pyrrolidin-2-one]: the IC50 is greater than 500 nM.

Consider `Cc1nnc(Nc2nccc(-c3cccc(-c4cc([C@]5(O)CCN(C)C5=O)on4)n3)n2)o1` [Example 319, (R)-3-Hydroxy-1-methyl-3-(3-(6-(2-((5-methyl-1,3,4-oxadiazol-2-yl)amino)pyrimidin-4-yl)pyridin-2-yl)isoxazol-5-yl)pyrrolidin-2-one], for which the IC50 is greater than 500 nM.

In the case of `CN1CC[C@@](O)(c2cc(-c3cccc(-c4ccnc(Nc5ccnc(N6CCOCC6)c5)n4)n3)no2)C1=O` [Example 320], the IC50 was less than 50 nM.

`CN1CC[C@@](O)(c2cc(-c3cccc(-c4ccnc(Nc5nnnn5C)n4)n3)no2)C1=O` [Example 321, (R)-3-Hydroxy-1-methyl-3-(3-(6-(2-((1-methyl-1H-tetrazol-5-yl)amino)pyrimidin-4-yl)pyridin-2-yl)isoxazol-5-yl)pyrrolidin-2-one]: the IC50 is greater than 500 nM.

Regarding `COc1cccc(Nc2nccc(-c3cccc(-c4cc([C@]5(O)CCN(C)C5=O)on4)n3)n2)n1` [Example 322, (R)-3-Hydroxy-3-(3-(6-(2-((6-methoxypyridin-2-yl)amino)pyrimidin-4-yl)pyridin-2-yl)isoxazol-5-yl)-1-methylpyrrolidin-2-one], the IC50 lay within 50 to 500 nM.

In the case of `CN1CC[C@@](O)(c2cc(-c3cccc(-c4ccnc(Nc5cn(C)cn5)n4)n3)no2)C1=O` [Example 323, (R)-3-Hydroxy-1-methyl-3-(3-(6-(2-((1-methyl-1H-imidazol-4-yl)amino)pyrimidin-4-yl)pyridin-2-yl)isoxazol-5-yl)pyrrolidin-2-one], the IC50 lay within 50 to 500 nM.

For `CN1CC[C@@](O)(c2cc(-c3cccc(-c4ccnc(Nc5nnc(C(F)F)o5)n4)n3)no2)C1=O` [Example 324, (R)-3-(3-(6-(2-((5-(Difluoromethyl)-1,3,4-oxadiazol-2-yl)amino)pyrimidin-4-yl)pyridin-2-yl)isoxazol-5-yl)-3-hydroxy-1-methylpyrrolidin-2-one], the IC50 is greater than 500 nM.
